Our source for the IC50 values is US9624200B2, “Therapeutic piperazines” (DART NEUROSCIENCE (CAYMAN) LTD., priority 2006, dated 2017).

The test system of the experiment is PDE4 from human U-937 cells. Kind of experiment: PDE4 Inhibition Assay. It counts as biochemical. The following applies: 1 μM cAMP, [3H]-cAMP, read-out: Potency Class (Inhibitory Concentration) in the PDE4 assay. As to the method:
PDE4 from human U-937 cells was used (see T. J. Torphy, et al., J. Pharmacol. Exp. Ther., 1992, 263, 1195-1205). Test compound at various concentration and/or vehicle was preincubated with 2 μg/ml enzyme in Tris-HCl buffer pH 7.5 for 15 minutes at 25° C. The reaction was initiated by addition of 1 1 μM cAMP and 0.01 1 μM [^3H]-cAMP for another 20 minute incubation period and terminated at 100° C. The resulting [^3H]-AMP was converted to [^3H]-adenosine by addition of snake venom nucleotidase and separated by AG1-X2 resin. An aliquot was removed and counted to determine the amount of [^3H]-adenosine formed. Results were converted to percent inhibition and IC so determined using XLfit from IDBS (ID Business Solutions Ltd., 2 Occam Court, Surrey Research Park, Guildford, Surrey, GU2 7QB UK).
Representative compounds of the present invention were tested and found to have significant PDE4 inhibition in this assay.
Regarding `COc1ccc(N2CCN(C(=O)[C@H]3CCC(=O)O3)[C@@H](Cc3ccccc3)C2)cc1OC1CCCC1` [Compound 296, (R)-5-((S)-2-benzyl-4-(3-(cyclopentyloxy)-4-methoxyphenyl)piperazine-1-carbonyl)dihydrofuran-2(3H)-one], the IC50 was greater than 1000 nM.

Take `COc1ccc(N2CCN(C(=O)Cc3ccccn3)[C@@H](Cc3ccccc3)C2)cc1OC1CCC1` [Compound 342, (S)-1-(2-benzyl-4-(3-cyclobutoxy-4-methoxyphenyl)piperazin-1-yl)-2-(pyridin-2-yl)ethanone]: the IC50 was less than 200 nM.

Take `COc1ccc(N2CCN(C(=O)Cc3n[nH]c([N+](=O)[O-])n3)[C@@H](Cc3ccccc3)C2)cc1OC1CCCC1` [Compound 325, (S)-1-(2-benzyl-4-(3-(cyclopentyloxy)-4-methoxyphenyl)piperazin-1-yl)-2-(5-nitro-1H-1,2,4-triazol-3-yl)ethanone]: the IC50 was less than 200 nM.

Take `COc1ccc(N2CCN(C(=O)Cc3ccccn3)[C@@H](Cc3ccccc3)C2)cc1OC(C)C` [Compound 341, (S)-1-(2-benzyl-4-(3-isopropoxy-4-methoxyphenyl)piperazin-1-yl)-2-(pyridin-2-yl)ethanone]: the IC50 was 200 to 1000 nM.

With `CCc1nn(C(C)C)c2cc(N3CCN(C(=O)Cc4nc(C)n[nH]4)[C@@H](Cc4ccccc4)C3)ccc12` [Compound 381, (S)-1-(2-benzyl-4-(3-ethyl-1-isopropyl-1H-indazol-6-yl)piperazin-1-yl)-2-(3-methyl-1H-1,2,4-triazol-5-yl)ethanone], the IC50 is less than 200 nM.

Regarding `COc1ccc(N2CCN(C(=O)Cc3ncccn3)[C@@H](Cc3ccccc3)C2)cc1OC1CCCC1` [Compound 388, (S)-1-(2-benzyl-4-(3-(cyclopentyloxy)-4-methoxyphenyl)piperazin-1-yl)-2-(pyrimidin-2-yl)ethanone], the IC50 is less than 200 nM.

On to `COc1ccc(N2CCN(C(=O)Cc3n[nH]c(C)n3)[C@@H](CN3CCCC3)C2)cc1OC1CCCC1` [Compound 255, (S)-1-(4-(3-(cyclopentyloxy)-4-methoxyphenyl)-2-(pyrrolidin-1-ylmethyl)piperazin-1-yl)-2-(5-methyl-1H-1,2,4-triazol-3-yl)ethanone], for which the IC50 was greater than 1000 nM.

Take `COc1ccc(N2CCN(C(=O)C3CCC(=O)N3)[C@@H](Cc3ccccc3)C2)cc1OC1CCCC1` (mixture of isomers) [Compound 285, (S)-5-(2-benzyl-4-(3-(cyclopentyloxy)-4-methoxyphenyl)piperazine-1-carbonyl)pyrrolidin-2-one]: the IC50 lay in the range of 200 to 1000 nM.

As for `COc1ccc(N2CCN(C(=O)[C@@H]3CCC(=O)O3)[C@@H](Cc3ccccc3)C2)cc1OC1CCCC1` [Compound 295, (S)-5-((S)-2-benzyl-4-(3-(cyclopentyloxy)-4-methoxyphenyl)piperazine-1-carbonyl)dihydrofuran-2 (3H)-one], the IC50 is greater than 1000 nM.

In the case of `COc1ccc(N2CCN(C(=O)Cc3ccc[nH]3)[C@@H](Cc3ccccc3)C2)cc1OC1CCCC1` [Compound 306, (S)-1-(2-benzyl-4-(3-(cyclopentyloxy)-4-methoxyphenyl)piperazin-1-yl)-2-(1H-pyrrol-2-yl)ethanone], the IC50 lay in the range of 200 to 1000 nM.

`COc1ccc(N2CCN(C(=O)c3ccc(O)c(O)c3)[C@@H](Cc3ccccc3)C2)cc1OC1CCCC1` [Compound 286, (S)-(2-benzyl-4-(3-(cyclopentyloxy)-4-methoxyphenyl)piperazin-1-yl)(3,4-dihydroxyphenyl)methanone]: the IC50 is greater than 1000 nM.

As to `COc1ccc(N2CCN(C(=O)Cc3nn[nH]n3)[C@@H](Cc3ccccc3)C2)cc1OC1CCCC1` [Compound 294, (S)-1-(2-benzyl-4-(3-(cyclopentyloxy)-4-methoxyphenyl)piperazin-1-yl)-2-(2H-tetrazol-5-yl)ethanone], the IC50 was less than 200 nM.

For the compound `COc1ccc(N2CCN(C(=O)Cc3cn(C)cn3)[C@@H](CC(C)C)C2)cc1OC1CCC1` [Compound 369, (S)-1-(4-(3-cyclobutoxy-4-methoxyphenyl)-2-isobutylpiperazin-1-yl)-2-(1-methyl-1H-imidazol-4-yl)ethanone], the IC50 lay in the range of 200 to 1000 nM.
